# Read-outs that look alike come from different tables or passages of the source.
# Tests used:
# [1] = system: HCV 1a Wild-type replicon; assay: microbe, parasite or virus in culture; details: Hepatitis C virus, Huh-7, read-out: Mean EC50 (nM) ± SD
# [2] = system: HCV 1a Wild-type replicon; details: read-out: Mean EC50 (nM) ± SD; HCV 1a variant Wild-type; Huh7-Lunet cells
SMILES,EC50 [1],EC50 [2]
CNC(=O)c1c(-c2ccc(F)cc2)oc2cc(N(CCO)S(C)(=O)=O)c(C3CC3)cc12 [HCV-796],11.8 nM,
C[C@@]1(F)[C@H](O)[C@@H](CO)O[C@H]1n1ccc(N)nc1=O [PSI-6130],,770 nM
